The record followed here is patent US8399378B2, “Use of neonicotinoids in pest control” (Syngenta Crop Protection LLC, priority 1998, dated 2013).

Holding throughout (format): in vivo
One assay deals with Aphis gossypii. The assay is described as follows: Cotton seedling spray test, action against Aphis gossypii. The following applies: 20° C, 3 and 6 days; for control (percentage reduction in population, % action): spray 400 ppm; for control level: plot (b) conventional cotton seedlings, 400 ppm compound, then 400 ppm δ-endotoxin CryIIIa. The protocol:
Cotton seedlings on a plot (a) expressing the δ-endotoxin CryIIIa on a plot (a) and conventional cotton seedlings on a plot (b) are infected with Aphis gossypi and subsequently sprayed with a spray mixture comprising 400 ppm thiamethoxam. Immediately afterwards, plot (b) is treated with an emulsion spray mixture comprising 400 ppm of the δ-endotoxin CryIIIa. The seedlings of plot (a) and (b) are then incubated at 20° C. The test is evaluated after 3 and 6 days.
(§1) The percentage reduction in population (% action) is determined by comparing the number of dead pests on the plants of plot (a) with that on the plants of plot (b).
Cotton seedlings expressing the δ-endotoxin CryIA(c) on a plot (a) and conventional cotton seedlings on a plot (b) are infected with Aphis gossypii and subsequently sprayed with a spray mixture comprising 400 ppm thiamethoxam. Immediately afterwards, plot (b) is treated with an emulsion spray mixture comprising 400 ppm of the δ-endotoxin CryIIIa. The seedlings of plot (a) and (b) are then incubated at 20° C. The test is evaluated after 3 and 6 days.

In assay [1] the test system is Frankliniella occidentalis. Briefly: Cotton seedling spray test, action against Frankliniella occidentalis. The following applies: 20° C, 3 and 6 days; for control (percentage reduction in population, % action): spray 400 ppm; for control level: plot (b) conventional cotton seedlings, 400 ppm compound. The procedure:
Cotton seedlings expressing the δ-endotoxin CryIIIa on a plot (a) and conventional cotton seedlings on a plot (b) are infected with Frankliniella occidentalis and subsequently sprayed with a spray mixture comprising 400 ppm thiamethoxam. Immediately afterwards, plot (b) is treated with an emulsion spray mixture comprising 400 ppm of the δ-endotoxin CryIIIa. The seedlings of plot (a) and (b) are then incubated at 20° C. The test is evaluated after 3 and 6 days.
as §1
Cotton seedlings expressing the δ-endotoxin CryIa(c) on a plot (a) and conventional cotton seedlings on a plot (b) are infected with Frankliniella occidentalis and subsequently sprayed with a spray mixture comprising 400 ppm thiamethoxam. Immediately afterwards, plot (b) is treated with an emulsion spray mixture comprising 400 ppm of the δ-endotoxin CryIa(c). The seedlings of plot (a) and (b) are then incubated at 20° C. The test is evaluated after 3 and 6 days.

For another assay, the system named is Spodoptera littoralis. The assay is described as follows: Spray test on young cotton plants, action against Spodoptera littoralis larvae. The text has this:
Young transgenic cotton plants which express the δ-endotoxin CryIIIA are sprayed with an aqueous emulsion spray mixture comprising 100, 50, 10, 5, 1 ppm of imidacloprid respectively. After the spray coating has dried on, the cotton plants are populated with 10 adult Anthonomus grandis, 10 Spodoptera littoralis larvae or 10 Heliothis virescens larvae respectively and introduced into a plastic container. Evaluation takes place 3 to 10 days later.
Young transgenic cotton plants which express the δ-endotoxin CryIIIA are sprayed with an aqueous emulsion spray mixture comprising 100, 50, 10, 5, 1 ppm of thiamethoxam respectively. After the spray coating has dried on, the cotton plants are populated with 10 adult Anthonomus grandis, 10 Spodoptera littoralis larvae or 10 Heliothis virescens larvae respectively and introduced into a plastic container. Evaluation takes place 3 to 10 days later.
Young transgenic cotton plants which express the δ-endotoxin CryIIIA are sprayed with an aqueous emulsion spray mixture comprising 100, 50, 10, 5, 1 ppm of Ti-435 respectively. After the spray coating has dried on, the cotton plants are populated with 10 adult Anthonomus grandis, 10 Spodoptera littoralis larvae or 10 Heliothis virescens larvae respectively and introduced into a plastic container. Evaluation takes place 3 to 10 days later.
Young transgenic cotton plants which express the δ-endotoxin CryIa(c) are sprayed with an aqueous emulsion spray mixture comprising 100, 50, 10, 5, 1 ppm of Ti-435 respectively. After the spray coating has dried on, the cotton plants are populated with 10 adult Anthonomus grandis, 10 Spodoptera littoralis larvae or 10 Heliothis virescens larvae respectively and introduced into a plastic container. Evaluation takes place 3 to 10 days later.
Young transgenic cotton plants which express the δ-endotoxin CryIa(c) are sprayed with an aqueous emulsion spray mixture comprising 100, 50, 10, 5, 1 ppm of thiamethoxam respectively. After the spray coating has dried on, the cotton plants are populated with 10 adult Anthonomus grandis, 10 Spodoptera littoralis larvae or 10 Heliothis virescens larvae respectively and introduced into a plastic container. Evaluation takes place 3 to 10 days later.
Young transgenic cotton plants which express the δ-endotoxin CryIa(c) are sprayed with an aqueous emulsion spray mixture comprising 100, 50, 10, 5, 1 ppm of imidacloprid respectively. After the spray coating has dried on, the cotton plants are populated with 10 adult Anthonomus grandis, 10 Spodoptera littoralis larvae or 10 Heliothis virescens larvae respectively and introduced into a plastic container. Evaluation takes place 3 to 10 days later.

Another assay has as its system Spodoptera spp. Briefly: Maize plot spray test (KnockOut vs conventional maize), action against Spodoptera spp. The following applies: 6 days. The procedure:
(§2) A plot (a) planted with maize cv. KnockOut® and an adjacent plot (b) of the same size which is planted with conventional maize, both showing natural infestation with Ostrinia nubilalis, Spodoptera spp. or Heliothis, are sprayed with an aqueous emulsion spray mixture comprising 200, 100, 50, 10, 5, 1 ppm of Ti-435. Immediately afterwards, plot (b) is treated with an emulsion spray mixture comprising 200, 100, 50, 10, 5, 1 ppm of the endotoxin expressed by KnockOut®. Evaluation takes place 6 days later. The percentage reduction in population (% action) is determined by comparing the number of dead pests on the plants of plot (a) with that on the plants of plot (b).
as §2, with “thiamethoxam.” for “Ti-435.”
as §2, with “imidacloprid.” for “Ti-435.”

The test system of another assay is Ostrinia nubilalis. The assay is described as follows: Maize plot spray test (KnockOut vs conventional maize), action against Ostrinia nubilalis. The following applies: 6 days. The protocol: as §2
as §2, with “thiamethoxam.” for “Ti-435.”
as §2, with “imidacloprid.” for “Ti-435.”

[2] abbreviates: plot (a) cotton seedlings expressing δ-endotoxin CryIIIa.
[3] abbreviates: plot (a) cotton seedlings expressing δ-endotoxin CryIa(c).
Setting [4] is: plot (a) maize cv. KnockOut, spray 200, 100, 50, 10, 5, 1 ppm, natural infestation.
Setting [5] is: plot (b) conventional maize, compound 200, 100, 50, 10, 5, 1 ppm, then same ppm of the endotoxin expressed by KnockOut.

Consider `CN1COCN(Cc2cnc(Cl)s2)/C1=N\[N+](=O)[O-]` [thiamethoxam, 5-(2-Chlorthiazol-5-ylmethyl)-3-methyl-4-nitroimino-perhydro-1,3,5-oxadiazin], for which the “control (percentage reduction in population, % action)” value (with Aphis gossypii (setting [2]); in the assay with Aphis gossypii (setting [3]); in assay [1] (setting [2]); in assay [1] (setting [3]); in the assay on Spodoptera spp. (setting [4]); in the assay with Ostrinia nubilalis (setting [4])) was “Improved control” each time. For the same compound, the control level (in the assay with Aphis gossypii; in the assay with Aphis gossypii (comparison arm for CryIA(c) cotton); in assay [1] (then 400 ppm δ-endotoxin CryIIIa); in assay [1] (then 400 ppm δ-endotoxin CryIa(c)); in the assay on Spodoptera spp. (setting [5]); with Ostrinia nubilalis (setting [5])) was not above 60% throughout. In addition, the “control of the tested insects (percentage reduction in population or feeding damage, % action)” value is “insufficient” in the assay on Spodoptera littoralis (non-transgenic cotton treated with compound and conventional CryIIIA-toxin, each 100, 50, 10, 5, 1 ppm, comparison arm for CryIa(c) cotton); “superior” in the assay with Spodoptera littoralis (transgenic cotton expressing δ-endotoxin CryIa(c), spray 100, 50, 10, 5, 1 ppm, evaluation 3 to 10 days).
